For experiment [1], the target named is T1, human adenosine A2a receptor (Homo sapiens, UniProt P29274).
T1 construct: expressed in transfected cells; host or cells: CHO-K1 cells with a cAMP inducible beta-galactosidase reporter gene
In words: Adenosine A2a Receptor Functional Assay (A2AGAL2). The format is cell-based. As to conditions: CHO-K1 cells overexpressing human A2a receptor, cAMP inducible beta-galactosidase reporter, 15 nM NECA agonist challenge. As for the experimental part:
Adenosine A2a Receptor Functional Assay (A2AGAL2)
(§1) To initiate the functional assay, cryopreserved CHO—K1 cells overexpressing the human adenosine A2a receptor and containing a cAMP inducible beta-galactosidase reporter gene were thawed, centrifuged, DMSO containing media removed, and then seeded with fresh culture media into clear 384-well tissue culture treated plates (BD #353961) at a concentration of 10K cells/well. Prior to assay, these plates were cultured for two days at 37° C., 5% CO2, 90% Rh. On the day of the functional assay, culture media was removed and replaced with 45 uL assay medium (Hams/F-12 Modified (Mediatech #10-080CV) supplemented w/0.1% BSA). Test compounds were diluted and 11 point curves created at a 1000× concentration in 100% DMSO. Immediately after addition of assay media to the cell plates, 50 nL of the appropriate test compound antagonist or agonist control curves were added to cell plates using a Cartesian Hummingbird. Compound curves were allowed to incubate at room temperature on cell plates for approximately 15 minutes before addition of a 15 nM NECA (Sigma E2387) agonist challenge (5 uL volume). A control curve of NECA, a DMSO/Media control, and a single dose of Forskolin (Sigma F3917) were also included on each plate. After additions, cell plates were allowed to incubate at 37° C., 5% CO2, 90% Rh for 5.5-6 hours. After incubation, media was removed, and cell plates were washed 1× 50 uL with DPBS w/o Ca & Mg (Mediatech 21-031-CV). Into dry wells, 20 uL of 1× Reporter Lysis Buffer (Promega E3971 (diluted in dH2O from 5× stock)) was added to each well and plates frozen at −20° C. overnight. For β-galactosidase enzyme calorimetric assay, plates were thawed out at room temperature and 20 μL 2× assay buffer (Promega) was added to each well. Color was allowed to develop at 37° C., 5% CO2, 90% Rh for 1-1.5 h or until reasonable signal appeared. The calorimetric reaction was stopped with the addition of 60 μL/well 1M sodium carbonate. Plates were counted at 405 nm on a SpectraMax Microplate Reader (Molecular Devices). Data was analyzed in Microsoft Excel and IC/EC50 curves were fit using a standardized macro.

For experiment [2], the target named is T2, human adenosine A1 receptor (Homo sapiens, UniProt P30542).
T2 construct: expressed in transfected cells; host or cells: CHO-K1 cells with a cAMP inducible beta-galactosidase reporter gene
T2 sequence (P30542 1-326): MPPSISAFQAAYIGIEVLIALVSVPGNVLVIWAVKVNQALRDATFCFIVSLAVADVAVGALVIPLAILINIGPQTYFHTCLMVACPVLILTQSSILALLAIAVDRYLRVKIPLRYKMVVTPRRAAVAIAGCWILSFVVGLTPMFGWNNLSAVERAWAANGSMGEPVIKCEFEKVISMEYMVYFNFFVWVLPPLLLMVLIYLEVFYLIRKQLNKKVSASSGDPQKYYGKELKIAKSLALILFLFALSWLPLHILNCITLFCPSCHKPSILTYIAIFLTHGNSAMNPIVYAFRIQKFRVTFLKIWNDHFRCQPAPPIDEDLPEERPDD
The experiment is described as follows: Adenosine A1 Receptor Functional Assay (A1GAL2). The format is cell-based. The conditions noted are these: CHO-K1 cells overexpressing human A1 receptor, cAMP inducible beta-galactosidase reporter, 4 nM r-PIA/1 uM Forskolin agonist challenge. How it is done: Adenosine A1 Receptor Functional Assay (A1GAL2)
as §1, with “adenosine A1” for “adenosine A2a”, “a 4” for “a 15”, “nM r-PIA” for “nM NECA”, “(Sigma P4532)/1 uM Forskolin (Sigma F3917)” for “(Sigma E2387)”, “of r-PIA in 1 uM Forskolin,” for “of NECA,”, “Forskolin” for “Forskolin (Sigma F3917)”

This note sets out measurements from patent publication US20100093764A1, “AMINES AND SULFOXIDES OF THIENO[2,3-d]PYRIMIDINE AND THEIR USE AS ADENOSINE A2a RECEPTOR ANTAGONISTS” (priority 2008, published 2010).

Counter-ions that a name gives are not always drawn.

T1 sequence (P29274 whole entry): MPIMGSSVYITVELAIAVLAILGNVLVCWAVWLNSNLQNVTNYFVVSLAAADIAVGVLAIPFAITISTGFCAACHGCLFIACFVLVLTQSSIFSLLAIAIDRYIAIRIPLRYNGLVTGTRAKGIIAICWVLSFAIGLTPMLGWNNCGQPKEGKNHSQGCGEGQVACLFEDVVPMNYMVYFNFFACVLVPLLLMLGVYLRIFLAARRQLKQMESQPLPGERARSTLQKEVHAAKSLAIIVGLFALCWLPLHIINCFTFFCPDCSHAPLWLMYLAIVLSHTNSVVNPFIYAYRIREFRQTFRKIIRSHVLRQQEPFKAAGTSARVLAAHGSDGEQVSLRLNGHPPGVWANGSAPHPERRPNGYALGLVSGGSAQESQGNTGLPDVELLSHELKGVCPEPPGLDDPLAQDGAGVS

What is called Ki is the dissociation constant of the complex between target and ligand, obtained from inhibition or displacement. Higher therefore signals a looser hold on the target. For the compound `N#Cc1cccc(-c2nc(N)c3cc(Nc4ccccc4)sc3n2)c1` [Example 1, (4-Amino-6-phenylamino-thieno[2,3-d]pyrimidin-2-yl)-benzonitrile], the Ki in experiment [1] came out at 0.0894 µM; in experiment [2], 1.15 µM.
In the same order, the values of `COc1ccccc1Nc1cc2c(N)nc(-c3cccc(C#N)c3)nc2s1` [Example 2, 3-[4-Amino-6-(2-methoxy-phenylamino)-thieno[2,3-d]pyrimidin-2-yl]-benzonitrile] are 0.0114 µM and 0.269 µM.
As for `COc1ccccc1N(C)c1cc2c(N)nc(-c3cccc(C#N)c3)nc2s1` [Example 3, 3-{4-Amino-6-[(2-methoxy-phenyl)-methyl-amino]-thieno[2,3-d]pyrimidin-2-yl}-benzonitrile], the values for the inhibition constant (Ki) in experiment [1] and in experiment [2] were 0.103 µM and 0.569 µM, respectively.
For `N#Cc1cccc(-c2nc(N)c3cc(Nc4ccccn4)sc3n2)c1` [Example 4, 3-[4-Amino-6-(pyridin-2-ylamino)-thieno[2,3-d]pyrimidin-2-yl]-benzonitrile] the same measures were 0.0844 µM and 0.765 µM.
In the same order, the values of `CN(c1ccccc1)c1cc2c(N)nc(-c3cccc(C#N)c3)nc2s1` [Example 5, 3-[4-Amino-6-(methyl-phenyl-amino)-thieno[2,3-d]pyrimidin-2-yl]-benzonitrile] are 0.127 µM and 2.33 µM.
In the same order, the values of `COc1cccc(Nc2cc3c(N)nc(-c4cccc(C#N)c4)nc3s2)c1` [Example 6, 3-[4-Amino-6-(3-methoxy-phenylamino)-thieno[2,3-d]pyrimidin-2-yl]-benzonitrile-hydrochloride] are 0.261 µM and 2.37 µM.
Take `N#Cc1cccc(-c2nc(N)c3cc(Nc4ccccc4Cl)sc3n2)c1` [Example 7, 3-[4-Amino-6-(2-chloro-phenylamino)-thieno[2,3-d]pyrimidin-2-yl]-benzonitrile-hydrochloride]: the inhibition constant (Ki) in experiment [1] amounted to 0.23 µM; in experiment [2], 2.27 µM.
For `CN(c1cc2c(N)nc(-c3cccc(C#N)c3)nc2s1)c1ccccc1Cl` [Example 8, 3-{4-Amino-6-[(2-chloro-phenyl)-methyl-amino]-thieno[2,3-d]pyrimidin-2-yl}-benzonitrile], the inhibitory constant (Ki) in experiment [1] worked out at 0.316 µM; in experiment [2] it was 2.77 µM.
In the same order, the values of `COc1cccc(N(C)c2cc3c(N)nc(-c4cccc(C#N)c4)nc3s2)c1` [Example 9, 3-{4-Amino-6-[(3-methoxy-phenyl)-methyl-amino]-thieno[2,3-d]pyrimidin-2-yl}-benzonitrile-hydrochloride] are 0.273 µM and 2.54 µM.
In the same order, the values of `N#Cc1cccc(-c2nc(N)c3cc(Nc4ccccc4F)sc3n2)c1` [Example 10, 3-[4-Amino-6-(2-fluoro-phenylamino)-thieno[2,3-d]pyrimidin-2-yl]-benzonitrile] are 0.131 µM and 2.6 µM.
Take `CN(c1cccc(F)c1)c1cc2c(N)nc(-c3cccc(C#N)c3)nc2s1` [Example 11, 3-{4-Amino-6-[(3-fluoro-phenyl)-methyl-amino]-thieno[2,3-d]pyrimidin-2-yl}-benzonitrile]: the inhibition constant (Ki) worked out at 0.398 µM in experiment [1] and 5.23 µM in experiment [2].
In the same order, the values of `N#Cc1cccc(-c2nc(N)c3cc(S(=O)(=O)c4ccccc4)sc3n2)c1` [Example 12, 3-(4-Amino-6-benzenesulfonyl-thieno[2,3-d]pyrimidin-2-yl)-benzonitrile] are 0.0157 µM and 0.358 µM.
